# In the supplement of paper PMC4862054:
# How the values were obtained:
# Experiment in all cases: normalised viability (% of control), CellTiter-Blue; higher = more viable cells (about 100 = DMSO control)
# Conditions in all cases: incubation time: 72 h
# DU-4475 [1] = tested on: DU-4475
# Description: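 DSRT, CellTiter-Blue viability, 72 h incubation. Signal is normalised to DMSO and benzethonium chloride controls. Value is the normalised response at dose 7.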
# BT-474 [2] = tested on: BT-474
# Description: (§1)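 DSRT, CellTiter-Blue viability, 72 h incubation. Signal is normalised to DMSO and benzethonium chloride controls. Value is the normalised response at dose 3.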
# BT-549 = tested on: BT-549
# Description: as §1
# CAL-120 = tested on: CAL-120
# Description: as §1
# CAL-148 = tested on: CAL-148
# Description: as §1
# CAL-51 [3] = tested on: CAL-51
# Description: as §1
# CAL-85-1 [4] = tested on: CAL-85-1
# Description: as §1
# DU-4475 [5] = tested on: DU-4475; remark: listed apart in the source
# Description: as §1
# HCC1143 = tested on: HCC1143
# Description: as §1
# HCC1599 = tested on: HCC1599
# Description: as §1
# HCC1937 = tested on: HCC1937
# Description: as §1
# HDQ-P1 = tested on: HDQ-P1
# Description: as §1
# Hs578T = tested on: Hs578T
# Description: as §1
# MDA-MB-231 [6] = tested on: MDA-MB-231
# Description: as §1
# MDA-MB-436 [7] = tested on: MDA-MB-436
# Description: as §1
# MDA-MB-453 [8] = tested on: MDA-MB-453
# Description: as §1
# MDA-MB-468 = tested on: MDA-MB-468
# Description: as §1
# MFM-223 [9] = tested on: MFM-223
# Description: as §1
# SK-BR-3 = tested on: SK-BR-3
# Description: as §1
# BT-474 [10] = tested on: BT-474; remark: listed apart in the source
# How it was run: (§2)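 Breast cancer cell lines in 20 µl suspension were seeded onto 384-well plates pre-loaded with compound dissolved in 5 µl medium, then incubated 72 h. CellTiter-Blue reagent (2.5 µl) was added for 2 h at 37 °C and fluorescence read at 560/590 nm. Each plate was normalised to vehicle (100) and a positive kill control (0), with Z'-factor quality control. The value is normalised viability at one listed concentration of the series.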
# CAL-51 [11] = tested on: CAL-51; remark: listed apart in the source
# How it was run: as §2
# CAL-85-1 [12] = tested on: CAL-85-1; remark: listed apart in the source
# How it was run: as §2
# DU-4475 [13] = tested on: DU-4475; remark: listed apart in the source
# How it was run: as §2
# MDA-MB-231 [14] = tested on: MDA-MB-231; remark: listed apart in the source
# How it was run: as §2
# MDA-MB-436 [15] = tested on: MDA-MB-436; remark: listed apart in the source
# How it was run: as §2
# MDA-MB-453 [16] = tested on: MDA-MB-453; remark: listed apart in the source
# How it was run: as §2
# MFM-223 [17] = tested on: MFM-223; remark: listed apart in the source
# How it was run: as §2
smiles,measurement,setting,value
CN1CCC(COc2cnc(-c3cccc(Cn4nc(-c5cccc(C#N)c5)ccc4=O)c3)nc2)CC1 (1000 nM),normalised viability,DU-4475 [1],97.2%
CN(C)C/C=C/C(=O)Nc1cc2c(Nc3ccc(F)c(Cl)c3)ncnc2cc1O[C@H]1CCOC1 [Afatinib] (1000 nM),normalised viability,DU-4475 [1],87.7%
CN1CC[C@H](c2c(O)cc(O)c3c(=O)cc(-c4ccccc4Cl)oc23)[C@H](O)C1 [Alvocidib] (1000 nM),normalised viability,DU-4475 [1],3.18%
Nc1nc(Cl)nc2c1ncn2[C@H]1C[C@H](O)[C@@H](CO)O1 [Cladribine] (100 nM),normalised viability,DU-4475 [1],81%
Nc1ccn([C@@H]2O[C@H](CO)[C@@H](O)[C@@H]2O)c(=O)n1 [Cytarabine] (1000 nM),normalised viability,DU-4475 [1],39.7%
Cc1c2oc3c(C)ccc(C(=O)N[C@@H]4C(=O)N[C@H](C(C)C)C(=O)N5CCC[C@H]5C(=O)N(C)CC(=O)N(C)[C@@H](C(C)C)C(=O)O[C@@H]4C)c3nc-2c(C(=O)N[C@@H]2C(=O)N[C@H](C(C)C)C(=O)N3CCC[C@H]3C(=O)N(C)CC(=O)N(C)[C@@H](C(C)C)C(=O)O[C@@H]2C)c(N)c1=O [Dactinomycin] (100 nM),normalised viability,DU-4475 [1],0.64%
COc1cccc2c1C(=O)c1c(O)c3c(c(O)c1C2=O)C[C@@](O)(C(=O)CO)C[C@@H]3O[C@H]1C[C@H](N)[C@H](O)[C@H](C)O1 [Doxorubicin] (100 nM),normalised viability,DU-4475 [1],59.1%
Cc1ccc(F)c(NC(=O)Nc2ccc(-c3cccc4[nH]nc(N)c34)cc2)c1 [Linifanib],normalised viability,BT-474 [2]; 10 nM,111%
same,normalised viability,BT-549; 10 nM,94.8%
same,normalised viability,CAL-120; 10 nM,95.2%
same,normalised viability,CAL-148; 1 nM,104%
same,normalised viability,CAL-51 [3]; 1 nM,102%
same,normalised viability,CAL-85-1 [4]; 1 nM,99%
same,normalised viability,DU-4475 [5]; 1 nM,96.5%
same,normalised viability,HCC1143; 10 nM,89.4%
same,normalised viability,HCC1599; 10 nM,108%
same,normalised viability,HCC1937; 10 nM,109%
same,normalised viability,HDQ-P1; 1 nM,108%
same,normalised viability,Hs578T; 10 nM,82.9%
same,normalised viability,MDA-MB-231 [6]; 10 nM,103%
same,normalised viability,MDA-MB-436 [7]; 10 nM,124%
same,normalised viability,MDA-MB-453 [8]; 1 nM,106%
same,normalised viability,MDA-MB-468; 10 nM,123%
same,normalised viability,MFM-223 [9]; 10 nM,102%
same,normalised viability,SK-BR-3; 10 nM,119%
same,normalised viability,BT-474 [10]; 1 nM,113%
same,normalised viability,BT-474 [10]; 100 nM,108%
same,normalised viability,BT-474 [10]; 1000 nM,123%
same,normalised viability,CAL-51 [11]; 0.3 nM,106%
same,normalised viability,CAL-51 [11]; 3 nM,105%
same,normalised viability,CAL-51 [11]; 10 nM,107%
same,normalised viability,CAL-85-1 [12]; 0.3 nM,93.9%
same,normalised viability,CAL-85-1 [12]; 3 nM,87.9%
same,normalised viability,CAL-85-1 [12]; 10 nM,98.8%
same,normalised viability,DU-4475 [13]; 0.3 nM,103%
same,normalised viability,DU-4475 [13]; 3 nM,93.6%
same,normalised viability,DU-4475 [13]; 10 nM,108%
same,normalised viability,MDA-MB-231 [14]; 1 nM,115%
same,normalised viability,MDA-MB-231 [14]; 100 nM,101%
same,normalised viability,MDA-MB-231 [14]; 1000 nM,109%
same,normalised viability,MDA-MB-436 [15]; 1 nM,108%
same,normalised viability,MDA-MB-436 [15]; 100 nM,110%
same,normalised viability,MDA-MB-436 [15]; 1000 nM,120%
same,normalised viability,MDA-MB-453 [16]; 0.3 nM,111%
same,normalised viability,MDA-MB-453 [16]; 3 nM,111%
same,normalised viability,MDA-MB-453 [16]; 10 nM,104%
same,normalised viability,MFM-223 [17]; 1 nM,101%
same,normalised viability,MFM-223 [17]; 100 nM,96.6%
same,normalised viability,MFM-223 [17]; 1000 nM,98.4%
Cc1ccc(F)c(NC(=O)Nc2ccc(-c3cccc4[nH]nc(N)c34)cc2)c1 [Linifanib] (100 nM),normalised viability,DU-4475 [1],103%
S=c1[nH]cnc2nc[nH]c12 [Mercaptopurine] (1000 nM),normalised viability,DU-4475 [1],90.6%
Clc1ccc(C(c2ccccc2Cl)C(Cl)Cl)cc1 (stereo not drawn) [Mitotane],normalised viability,BT-474 [2]; 100 nM,127%
same,normalised viability,BT-549; 100 nM,98.5%
same,normalised viability,CAL-120; 100 nM,86.3%
same,normalised viability,CAL-148; 10 nM,93.1%
same,normalised viability,CAL-51 [3]; 10 nM,112%
same,normalised viability,CAL-85-1 [4]; 10 nM,99.9%
same,normalised viability,DU-4475 [5]; 10 nM,98.6%
same,normalised viability,HCC1143; 100 nM,89.6%
same,normalised viability,HCC1599; 100 nM,107%
same,normalised viability,HCC1937; 100 nM,95.6%
same,normalised viability,HDQ-P1; 10 nM,99.1%
same,normalised viability,Hs578T; 100 nM,99.8%
same,normalised viability,MDA-MB-231 [6]; 100 nM,91.7%
same,normalised viability,MDA-MB-436 [7]; 100 nM,105%
same,normalised viability,MDA-MB-453 [8]; 10 nM,102%
same,normalised viability,MDA-MB-468; 100 nM,98.8%
same,normalised viability,MFM-223 [9]; 100 nM,93.9%
same,normalised viability,SK-BR-3; 100 nM,112%
same,normalised viability,BT-474 [10]; 10 nM,118%
same,normalised viability,BT-474 [10]; 1000 nM,108%
same,normalised viability,BT-474 [10]; 10000 nM,130%
same,normalised viability,CAL-51 [11]; 3 nM,117%
same,normalised viability,CAL-51 [11]; 30 nM,106%
same,normalised viability,CAL-51 [11]; 100 nM,107%
same,normalised viability,CAL-85-1 [12]; 3 nM,92.6%
same,normalised viability,CAL-85-1 [12]; 30 nM,86.2%
same,normalised viability,CAL-85-1 [12]; 100 nM,101%
same,normalised viability,DU-4475 [13]; 3 nM,109%
same,normalised viability,DU-4475 [13]; 30 nM,87.5%
same,normalised viability,DU-4475 [13]; 100 nM,93.9%
same,normalised viability,MDA-MB-231 [14]; 10 nM,85.4%
same,normalised viability,MDA-MB-231 [14]; 1000 nM,94.8%
same,normalised viability,MDA-MB-231 [14]; 10000 nM,119%
same,normalised viability,MDA-MB-436 [15]; 10 nM,88.9%
same,normalised viability,MDA-MB-436 [15]; 1000 nM,106%
same,normalised viability,MDA-MB-436 [15]; 10000 nM,90.9%
same,normalised viability,MDA-MB-453 [16]; 3 nM,117%
same,normalised viability,MDA-MB-453 [16]; 30 nM,94.6%
same,normalised viability,MDA-MB-453 [16]; 100 nM,103%
same,normalised viability,MFM-223 [17]; 10 nM,90.3%
same,normalised viability,MFM-223 [17]; 1000 nM,96%
same,normalised viability,MFM-223 [17]; 10000 nM,87.9%
